Data as given in patent publication US10111833B2, “Sildenafil sublingual spray formulations” (Insys Development Company, Inc., priority 2015, dated 2018).

Key:
[1] = Impurity formation / standard stability testing (clarity, color, pH, assay, impurities); type: physicochemical; conditions: Drug Substance
Description: In order to further determine the stability of Formulations 1, 3A, 3B, 5A, 5B, 5C, 5D and 5E, the formulations were subjected to standard stability testing to determine impurity levels. The results are below in Tables 7-11.

[2] = Freeze/thaw stability testing; type: physicochemical; conditions: Drug Substance
Description: The results are below in Tables 13-18.

CCCc1nn(C)c2c(=O)[nH]c(-c3cc(S(=O)(=O)N4CCN(C)CC4)ccc3OCC)nc12 [Drug Substance, Sildenafil base]
Assay (% of initial Conc) [1]: 100.70% | Impurity A [1]: BQL (BQL = Below Quantification Limit (Limit of Quantification = 0.05%)) | Impurity B [1]: ND (ND = Not Detected (Limit of Detection = 0.01%)) | Impurity C [1]: BQL (BQL = Below Quantification Limit (Limit of Quantification = 0.05%)) | Impurity D [1]: BQL (BQL = Below Quantification Limit (Limit of Quantification = 0.05%)) | Total Impurities [1]: 0.00% | Unknown Impurity RRT 0.24 [1]: ND (ND = Not Detected (Limit of Detection = 0.01%)) | Unknown Impurity RRT 0.61 [1]: ND (ND = Not Detected (Limit of Detection = 0.01%)) | Physical appearance ([1]; first line of cell (clarity)): clear, | Physical appearance ([1]; second line of cell (color)): colorless | Color [2]: colorless | Physical appearance [2]: clear
